Experiment [1] deals with T1, Stromelysin-1 (Homo sapiens, UniProt P08254).
The target in experiment [2] is T1, Stromelysin-1. This is another data set of the same source.
In a further experiment the target is T2, Matrilysin (Homo sapiens, UniProt P09237).
T2 sequence (P09237 whole entry): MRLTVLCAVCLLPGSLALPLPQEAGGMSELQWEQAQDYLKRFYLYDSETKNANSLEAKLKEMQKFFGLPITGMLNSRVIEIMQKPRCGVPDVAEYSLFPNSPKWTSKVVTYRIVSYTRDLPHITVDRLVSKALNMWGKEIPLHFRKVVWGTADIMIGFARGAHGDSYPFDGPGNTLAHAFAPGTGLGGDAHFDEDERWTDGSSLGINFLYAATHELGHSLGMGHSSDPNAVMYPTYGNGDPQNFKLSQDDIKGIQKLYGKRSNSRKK

Experiment [3] deals with T3, Interstitial collagenase (Homo sapiens, UniProt P03956).
T3 sequence (P03956 whole entry): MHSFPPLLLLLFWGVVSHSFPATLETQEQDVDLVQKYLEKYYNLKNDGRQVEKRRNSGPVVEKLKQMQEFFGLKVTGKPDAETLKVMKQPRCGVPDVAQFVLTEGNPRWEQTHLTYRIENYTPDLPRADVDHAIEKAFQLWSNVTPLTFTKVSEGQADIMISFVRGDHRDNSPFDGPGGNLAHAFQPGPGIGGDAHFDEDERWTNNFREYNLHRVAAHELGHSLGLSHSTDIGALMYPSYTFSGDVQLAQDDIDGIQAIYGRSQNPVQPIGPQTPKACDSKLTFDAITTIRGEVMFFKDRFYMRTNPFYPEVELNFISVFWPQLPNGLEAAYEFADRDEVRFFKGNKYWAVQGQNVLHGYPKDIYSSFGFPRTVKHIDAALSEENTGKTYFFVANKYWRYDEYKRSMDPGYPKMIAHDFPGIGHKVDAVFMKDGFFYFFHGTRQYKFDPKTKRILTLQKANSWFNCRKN

The target in experiment [4] is T3, Interstitial collagenase. This is another data set of the same source.

This note sets out measurements from ChEMBL document CHEMBL1130307, “Inhibition of Matrix Metalloproteinases: An examination of the S1 pocket” (Bioorg Med Chem Lett, 1997).

Molecules are shown by their SMILES.

T1 sequence (P08254 whole entry): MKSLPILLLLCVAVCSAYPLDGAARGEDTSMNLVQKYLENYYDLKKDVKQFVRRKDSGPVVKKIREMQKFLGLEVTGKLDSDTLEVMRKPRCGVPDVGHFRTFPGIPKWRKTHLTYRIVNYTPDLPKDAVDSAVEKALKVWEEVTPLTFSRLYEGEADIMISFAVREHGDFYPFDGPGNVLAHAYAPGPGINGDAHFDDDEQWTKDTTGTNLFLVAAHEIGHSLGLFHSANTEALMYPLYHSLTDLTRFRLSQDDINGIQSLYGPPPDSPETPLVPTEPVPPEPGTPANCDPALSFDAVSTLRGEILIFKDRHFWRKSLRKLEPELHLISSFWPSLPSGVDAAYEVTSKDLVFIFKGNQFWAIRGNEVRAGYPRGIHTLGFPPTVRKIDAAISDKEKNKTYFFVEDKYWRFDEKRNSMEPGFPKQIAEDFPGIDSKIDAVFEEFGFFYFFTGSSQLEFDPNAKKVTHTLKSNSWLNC

In the case of `CCCCCCCCCCCCCCCC[C@H](CC(=O)O)C(=O)N[C@@H](Cc1ccccc1)C(=O)NC`, at Stromelysin-1 [1], the concentration for half-maximal inhibition (IC50) worked out at 50000 nM.

For `CNC(=O)[C@@H](NC(=O)[C@H](CCCCCCCCCCCCCCO)CC(=O)NO)C(C)(C)C`, the IC50 against Stromelysin-1 [2] amounted to 50 nM; at Matrilysin, 500 nM. `CCCCCCCCCCCCC[C@H](CC(=O)O)C(=O)N[C@H](C(=O)NC)C(C)(C)C` displayed an IC50 on Stromelysin-1 [1] of 2000 nM. On the same count and under the same terms, next, `CCCCCCCCCCCCCCC[C@H](CC(=O)O)C(=O)N[C@H](C(=O)NC)C(C)(C)C`: 7000 nM.

Take `CCCCCCCC[C@H](CC(=O)NO)C(=O)N[C@H](C(=O)NC)C(C)(C)C`: the half-maximal inhibitory concentration (IC50) came out at 100 nM against Stromelysin-1 [2] and 500 nM at Matrilysin.

In the case of `CCCCCCCC[C@H](CC(=O)O)C(=O)N[C@H](C(=O)NC)C(C)(C)C`, the 50% inhibitory concentration (IC50) came out at 30000 nM at Stromelysin-1 [1] and 40000 nM on Matrilysin. For the molecule `CCCCCCCCCCCCCC[C@H](CC(=O)O)C(=O)N[C@H](C(=O)NC)C(C)(C)C`, it took 4000 nM to reach half-maximal inhibition against Stromelysin-1 [1] (IC50). Regarding `CCCCCCC[C@H](CC(=O)O)C(=O)N[C@@H](Cc1ccccc1)C(=O)NC`, at Interstitial collagenase [3], the midpoint of inhibition, the IC50, lay at 7000 nM. As to `CCCCCCCCCCCCCC[C@H](CC(=O)NO)C(=O)N[C@H](C(=O)NC)C(C)(C)C`, the midpoint of inhibition against Stromelysin-1 [2], the IC50, lay at 70 nM.

Take `CCCCCCCCC[C@H](CC(=O)O)C(=O)N[C@@H](Cc1ccccc1)C(=O)NC`: the IC50 turned out to be 20000 nM on Stromelysin-1 [1] and 7000 nM against Interstitial collagenase [3].

As to `CNC(=O)[C@H](Cc1ccccc1)NC(=O)[C@H](CC(C)C)[C@H](CSc1cccs1)C(=O)NO` [BATIMASTAT], on Matrilysin, the IC50 was 6 nM. On to `CCCCCCCCCCCCC[C@H](CC(=O)NO)C(=O)N[C@H](C(=O)NC)C(C)(C)C`, for which the figures for the IC50 against Stromelysin-1 [2] and against Matrilysin were 60 nM and 2000 nM, respectively. For `CCCCCCCC[C@H](CC(=O)O)C(=O)N[C@@H](Cc1ccccc1)C(=O)NC`, it took 5000 nM to reach half-maximal inhibition at Stromelysin-1 [1] (IC50). Regarding `CCCCCCCCC[C@H](CC(=O)NO)C(=O)N[C@@H](Cc1ccccc1)C(=O)NC`, the IC50 at Stromelysin-1 [1] was 30 nM; against Interstitial collagenase [3], 500 nM; against Matrilysin, 3000 nM. The corresponding values for `CNC(=O)[C@H](Cc1ccccc1)NC(=O)[C@H](CCCc1ccccc1)CC(=O)NO` are 500 nM, 1000 nM and 10000 nM. For the molecule `CCCCCCCCCCCCCCCC[C@H](CC(=O)NO)C(=O)N[C@@H](Cc1ccccc1)C(=O)NC`, at Stromelysin-1 [1], the IC50 is 300 nM. Take `CCCCCCCCCC[C@H](CC(=O)NO)C(=O)N[C@@H](Cc1ccccc1)C(=O)NC`: the IC50 was found to be 1000 nM against Stromelysin-1 [1], 20 nM against Interstitial collagenase [3] and 2000 nM at Matrilysin. The corresponding values for `CCCCCCC[C@H](CC(=O)NO)C(=O)N[C@@H](Cc1ccccc1)C(=O)NC` are 40 nM, 400 nM and 2000 nM. Turning to `CCCCCCCCC[C@H](CC(=O)NO)C(=O)N[C@H](C(=O)NC)C(C)(C)C`, half-maximal inhibition against Interstitial collagenase [4] (IC50) required 375 nM.

With `CCCCCC[C@H](CC(=O)O)C(=O)N[C@@H](Cc1ccccc1)C(=O)NC`, at Interstitial collagenase [3], the IC50 was 20000 nM. Consider `CCCCCCCCCCCC[C@H](CC(=O)NO)C(=O)N[C@@H](Cc1ccccc1)C(=O)NC`, for which the values for the IC50 against Stromelysin-1 [1] and at Interstitial collagenase [3] were 40 nM and 50000 nM, respectively. Turning to `CCCCCCCCCCCCCCCC[C@H](CC(=O)O)C(=O)N[C@H](C(=O)NC)C(C)(C)C`, on Stromelysin-1 [2], half-maximal inhibition (IC50) was put at 10000 nM.

On to `CCCCCCCCCCCCCC[C@H](CC(=O)NO)C(=O)N[C@@H](Cc1ccccc1)C(=O)NC`, for which, on Stromelysin-1 [1], inhibition was half-maximal at 80 nM (IC50). Turning to `CCCCCC[C@H](CC(=O)NO)C(=O)N[C@@H](Cc1ccccc1)C(=O)NC`, the values for the IC50 against Stromelysin-1 [1], against Interstitial collagenase [3] and against Matrilysin were 80 nM, 20 nM and 2000 nM, respectively. The corresponding values for `CCCCCCCC[C@H](CC(=O)NO)C(=O)N[C@@H](Cc1ccccc1)C(=O)NC` are 450 nM, 150 nM and 1000 nM. `CCCCCCCCCCCCCCCC[C@H](CC(=O)NO)C(=O)N[C@H](C(=O)NC)C(C)(C)C` displayed an IC50 against Stromelysin-1 [2] of 90 nM.
